Results reported in US9284298B2, “Pyrazolyl-pyrimidine derivatives as kinase inhibitors” (NERVIANO MEDICAL SCIENCES S.R.L., priority 2011, dated 2016).
Structures can show the parent of a compound that is named as a salt.

Experiments:
[1] = molecular target: MPS1 (Homo sapiens (Human), UniProt P33981); test: Biochemical assay for inhibitors of MPS1 kinase activity (trans-phosphorylation, Dowex); conditions: 15 μM ATP, P38-tide substrate
Source text: Cloning, Expression and Purification of Recombinant MPS1 Full Length Protein.
MPS1 full length (corresponding to residues 2-857 of the full length sequence, see Swiss-Prot accession number P33981) was PCR amplified from the full-length human MPS1 gene present in house as clone pGEX4t_MPS1.
Baculoviruses were generated by cotransfecting Sf9 insect cells with the expression vector and the viral DNA using the BaculoGold® transfection kit (Pharmingen). Viral supernatant was recovered after 5 days and subjected to 3 rounds of amplification to increase viral titer. Recombinant protein was produced by infecting High5 insect cells. After 72 h of infection at 21° C., cells were recovered, pelletted and freezed at −80° C. For purification of recombinant protein, pellet was thawed, resuspended in lysis buffer (PBS, NaCl 150 mM, Glycerol 10%, CHAPS 0.1%, DTT 20 mM, protease and phosphatase inhibitors) and lysed by Gaulin. Lysate was cleared by centrifugation and loaded on a GST affinity column. After extensive wash, recombinant protein was cleaved by a specific protease and eluted by incubation.
To get a fully activated enzyme, the protein was then subjected to auto-phosphorylation in presence of ATP 1 mM at 25° C. for 2 h in kinase buffer (Hepes pH 7.5 50 mM, MgCl2 2.5 mM, MnCl2 1 mM, DTT 1 mM, phosphatase inhibitors); ATP was then removed with a desalting column.
Biochemical Assay for Inhibitors of MPS1 Kinase Activity The inhibitory activity of putative kinase inhibitors and the potency of selected compounds were determined using a trans-phosphorylation assay.
(§1) Specific peptide or protein substrates are trans-phosphorylated by their specific ser-thr or tyr kinase in the presence of ATP traced with ^33P-γ-ATP, and in the presence of their own optimal buffer and cofactors.
(§2) At the end of the phosphorylation reaction, more than 98% unlabeled ATP and radioactive ATP is captured by an excess of the ion exchange dowex resin; the resin then settles down to the bottom of the reaction plate by gravity.
(§3) Supernatant is subsequently withdrawn and transferred into a counting plate, then evaluated by β-counting.
The buffer for MPS1 assay was composed of HEPES 50 mM, at pH 7.5, with 2.5 mM MgCl2, 1 mM MnCl2, 1 mM DTT, 3 μM Na3VO4, 2 mM β-glycerophosphate and 0.2 mg/mL BSA.
The assay was run with a final concentration MPS1 of 5 nM, in the presence of 15 μM ATP and 1.5 nM ^33P-γ-ATP; the substrate was P38-tide, used at 200 μM.
Test compounds are received as a 1 mM solution in 100% DMSO, distributed into 96 or 384 well plates: • a) for percent inhibition studies (HTS), individual dilution plates at 1 mM are diluted at a 3× concentration (30 μM) in ddH2O (3% DMSO=final concentration) using a Beckman NX automated pipetting platform. […]

[2] = molecular target: PIM2 (Homo sapiens (Human), UniProt Q9P1W9); test: PIM2 kinase inhibition assay: Dowex technique; type: biochemical; conditions: 4 μM ATP, Aktide substrate
Chain of PIM2 (Q9P1W9 whole entry): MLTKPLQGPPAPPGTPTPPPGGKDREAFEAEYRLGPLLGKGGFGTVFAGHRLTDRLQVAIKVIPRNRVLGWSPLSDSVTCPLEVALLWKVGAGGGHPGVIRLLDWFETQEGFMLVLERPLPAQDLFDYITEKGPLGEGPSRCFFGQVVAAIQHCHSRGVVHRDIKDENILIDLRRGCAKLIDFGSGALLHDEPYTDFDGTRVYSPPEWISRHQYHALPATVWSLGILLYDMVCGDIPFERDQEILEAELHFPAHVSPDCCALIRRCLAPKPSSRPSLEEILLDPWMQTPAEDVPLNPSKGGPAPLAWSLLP
Protocol: Method for PIM2 Kinase Inhibition Assay: Dowex Technique
The buffer for PIM2 assay was composed of HEPES 50 mM, at pH 7.5, with 1 mM MgCl2, 1 mM DTT, 3 μM Na3VO4, and 0.2 mg/mL BSA.
Full-length human PIM2 was expressed and purified as described in Fedorov O, et al., PNAS 2007 104, 51, 20523-28.
Enzyme concentration=1.5 nM
Aktide substrate (Chemical Abstract Service Registry Number 324029-01-8)=5 μM
See above: same procedure as described for PIM1.

[3] = molecular target: PIM1 (Homo sapiens (Human), UniProt P11309); test: Biochemical assay for inhibitors of PIM1 kinase activity (trans-phosphorylation, Dowex); conditions: 200 μM ATP, Aktide substrate
Chain of PIM1 (P11309 whole entry): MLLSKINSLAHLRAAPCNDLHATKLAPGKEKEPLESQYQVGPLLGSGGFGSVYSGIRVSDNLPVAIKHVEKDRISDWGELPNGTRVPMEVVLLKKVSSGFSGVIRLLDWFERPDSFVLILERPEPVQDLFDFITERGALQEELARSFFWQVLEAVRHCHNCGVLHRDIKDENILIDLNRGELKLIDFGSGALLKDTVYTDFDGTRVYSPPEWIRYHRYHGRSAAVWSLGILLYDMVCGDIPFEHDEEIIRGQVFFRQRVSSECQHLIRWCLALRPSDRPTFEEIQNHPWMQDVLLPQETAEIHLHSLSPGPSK
Protocol: The short forms and abbreviations used herein have the following meaning: • Ci Curie • DMSO dimethylsulfoxide • KDa kiloDalton • microCi microCurie • mg milligram • microg microgram • ng nanogram • L liter • mL milliliter • μL microliter • M molar • mM millimolar • μM micromolar • nM nanomolar Biochemical Assay for Inhibitors of PIM1 Kinase Activity
The inhibitory activity of putative kinase inhibitors and the potency of selected compounds were determined using a trans-phosphorylation assay.
as §1, §2, §3
The buffer for PIM1 assay was composed of HEPES 50 mM, at pH 7.5, with 10 mM MgCl2, 1 mM DTT, 3 μM NaVO3, and 0.2 mg/mL BSA. […]
Data are analyzed by an internally customized version of the “Assay Explorer” SW package, which provides sigmoidal fitting of the ten-dilution curves for IC50 determination in secondary assay/hit confirmation routines.

Chain of MPS1 (P33981 2-857): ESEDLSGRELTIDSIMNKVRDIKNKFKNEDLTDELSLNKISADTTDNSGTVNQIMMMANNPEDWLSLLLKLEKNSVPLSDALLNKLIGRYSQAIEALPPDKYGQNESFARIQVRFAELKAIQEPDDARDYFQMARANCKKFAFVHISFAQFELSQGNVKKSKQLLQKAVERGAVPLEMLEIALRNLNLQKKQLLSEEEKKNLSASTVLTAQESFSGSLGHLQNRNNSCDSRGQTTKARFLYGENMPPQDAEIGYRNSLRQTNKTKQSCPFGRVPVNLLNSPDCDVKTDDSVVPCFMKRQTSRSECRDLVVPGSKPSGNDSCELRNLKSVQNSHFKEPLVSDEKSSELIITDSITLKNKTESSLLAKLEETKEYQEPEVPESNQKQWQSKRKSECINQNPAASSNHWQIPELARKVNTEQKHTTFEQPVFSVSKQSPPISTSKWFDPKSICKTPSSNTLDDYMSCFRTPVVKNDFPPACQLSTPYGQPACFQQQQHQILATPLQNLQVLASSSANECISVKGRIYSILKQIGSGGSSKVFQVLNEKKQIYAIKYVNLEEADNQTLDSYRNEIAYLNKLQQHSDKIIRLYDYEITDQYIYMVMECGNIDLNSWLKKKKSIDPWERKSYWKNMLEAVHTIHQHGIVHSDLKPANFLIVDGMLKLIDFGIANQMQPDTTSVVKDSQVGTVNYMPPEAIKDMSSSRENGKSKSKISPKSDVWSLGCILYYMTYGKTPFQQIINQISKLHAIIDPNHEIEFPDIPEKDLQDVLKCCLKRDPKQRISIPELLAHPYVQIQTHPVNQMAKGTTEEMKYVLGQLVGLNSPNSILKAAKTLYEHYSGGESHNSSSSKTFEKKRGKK

Row | Structure (SMILES) | IC50 [1] | IC50 [2] | IC50 [3]
1 | CCc1cccc(CC)c1NC(=O)c1cc(-c2ccnc(Nc3ccc(N4CCN(CCO)CC4)cc3OC)n2)n(C)n1 [Compound 8, N-(2,6-diethylphenyl)-5-[2-({4-[4-(2-hydroxyethyl)piperazin-1-yl]-2-methoxyphenyl}amino)pyrimidin-4-yl]-1-methyl-1H-pyrazole-3-carboxamide] | < 200 nM | – | –
2 | CCc1cccc(CC)c1NC(=O)c1cc(-c2ccnc(Nc3ccc(N4CCN(C)CC4)cc3OC)n2)n(C)n1 [Compound 3, N-(2,6-diethylphenyl)-5-(2-{[2-methoxy-4-(4-methylpiperazin-1-yl)phenyl]amino}pyrimidin-4-yl)-1-methyl-1H-pyrazole-3-carboxamide] | < 200 nM | – | –
3 | CSc1nccc(-c2cc(C(N)=O)nn2C2CCNCC2)n1 [Compound 21, 5-[2-(methylsulfanyl)pyrimidin-4-yl]-1-(piperidin-4-yl)-1H-pyrazole-3-carboxamide hydrochloride] | – | < 10000 nM | < 10000 nM
4 | CCc1cccc(CC)c1NC(=O)c1cc(-c2ccnc(Nc3ccc(N4CCN(CCO)CC4)cc3OC)n2)[nH]n1 [Compound 13, N-(2,6-diethylphenyl)-5-[2-({4-[4-(2-hydroxyethyl)piperazin-1-yl]-2-methoxyphenyl}amino)pyrimidin-4-yl]-1H-pyrazole-3-carboxamide] | < 200 nM | – | –
5 | CCc1cccc(CC)c1NC(=O)c1cc(-c2ccnc(Nc3ccc(N4CCN(C)CC4)cc3OC)n2)[nH]n1 [Compound 11, N-(2,6-diethylphenyl)-5-(2-{[2-methoxy-4-(4-methylpiperazin-1-yl)phenyl]amino}pyrimidin-4-yl)-1H-pyrazole-3-carboxamide] | < 200 nM | – | –
